{"source": "patent US20090074790A1", "about": "“Methods for measuring transforming growth factor beta (TGF-beta) receptor signaling activity and uses thereof” (priority 2004, published 2009)", "test_system": "human keratinocytes", "assay": "Growth of human keratinocytes (HKc/HPV16), TGFβ-induced growth arrest", "details": "read-out: IC50 of growth inhibition of human keratinocytes, dose-dependent"}
{"substance": "TGFβ: Recombinant human TGFβ1 purchased from Austral Biologicals", "values": [{"measurement": "IC50", "value": "~5", "unit": "pM"}]}
